Source: patent US6566541B2, “Type 2 methionine aminopeptidase (MetAP2) inhibitors and uses thereof” (Massachusetts Institute of Technology, priority 1997, dated 2003)
Like-named read-outs stand apart in the source and are kept apart here. Blank lines part the entries; values can stand above or below the molecule they belong to.

Tests used:
[1] = test system: map1 null [XLP101 (map1::HIS3)] yeast cells; test: yeast growth on YEPD plates containing drug, map1 null; type: cell-based, Saccharomyces cerevisiae; settings: 50 nM drug, YEPD plate, 30° C., four days
Source text: (§1) […]. […] […].

recombinant yeast MetAP1 = molecular target: T1, recombinant yeast MetAP1 (Saccharomyces cerevisiae, UniProt Q01662); test: MetAP activity of recombinant yeast MetAP1 in vitro; type: biochemical; settings: concentrations up to 10 μM
T1 sequence (Q01662 1-387): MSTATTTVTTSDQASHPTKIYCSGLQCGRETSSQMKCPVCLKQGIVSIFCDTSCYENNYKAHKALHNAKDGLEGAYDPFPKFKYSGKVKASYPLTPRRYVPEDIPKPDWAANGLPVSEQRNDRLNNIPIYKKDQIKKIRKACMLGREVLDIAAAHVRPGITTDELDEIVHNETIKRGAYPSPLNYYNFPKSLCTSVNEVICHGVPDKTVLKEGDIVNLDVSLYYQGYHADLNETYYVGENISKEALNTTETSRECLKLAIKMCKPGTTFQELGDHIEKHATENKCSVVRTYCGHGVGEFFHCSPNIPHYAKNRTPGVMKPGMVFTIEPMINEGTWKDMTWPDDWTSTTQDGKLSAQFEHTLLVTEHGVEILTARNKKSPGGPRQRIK

recombinant human MetAP2 [2] = molecular target: T2, recombinant human MetAP2 (Homo sapiens, UniProt P50579); test: methionine aminopeptidase activity of MetAP2 (Met-Gly-Met-Met substrate); type: biochemical
T2 construct: made in house; host or cells: insect cells
Method: Recombinant human MetAP2 was expressed and purified from insect cells as described in Li and Chang, Biochem. Biophys. Res. Commun. […] Released methionine was quantified at different time points (0, 2, 3 and 5 min) using the method of Zuo et al., Mol. Gen.
(§2) Synthesis was according to the procedures as described in Mauri et al., Chem. Pharm. Bull. […] Bull.

recombinant human MetAP2 [3] = molecular target: T2, recombinant human MetAP2; test: covalent binding to MetAP2 (biotin conjugates, denaturing SDS-PAGE, streptavidin-HRP); settings: drug-protein complex maintained under denaturing conditions
Method: The protein samples were boiled in a sample buffer containing SDS and β-mercaptoethanol, subjected to SDS-PAGE, and transferred to nitrocellulose.
100 ng of recombinant human MetAP2 was incubated in 40 μl binding buffer (20 mM Tris·HCl, pH 7.1, 100 mM KCl, 0.2% Triton X-100) in the presence or absence of competitors for 1 hr followed by incubation with the biotin conjugates (1 μM) at 4° C. for 2 hr. 40 μl of 2×SDS sample buffer containing β-mercaptoethanol was added and the samples were boiled for 10 min. Following SDS-PAGE, the samples were transferred to nitrocellulose at 50V for 1 hr at 4° C. and blocked overnight in blocking solution (5% BSA, 2% Nonfat milk, 0.02% NaN3 in PBS). The membrane was incubated with rabbit anti-human MetAP2 antibodies (1:500) for 1 hr at room temperature, followed by incubation with sheep anti-rabbit IgG-HRP or incubated with streptavidin-HRP (1:1000) for 1 hr and visualized with the chemilluminescent ECL kit (Amersham, Arlington Heights, Ill.), as per manufacturer's instructions.

[4] = test system: map2 null [XLP201 (map2::URA3)] yeast cells; settings: 50 nM drug, YEPD plate, 30° C., four days
Method: To further test the specificity of these drugs, both wild type and mutant yeast strains lacking either MetAP1 (map1) or MetAP2 (map2) were plated onto media containing the two drugs. […] The plates were incubated at 30° C. for four days.

[5] = test system: bovine aortic endothelial cell (BAEC); test: bovine aortic endothelial cell (BAEC) proliferation assay (MTT); type: cell-based; settings: for IC50: Bos taurus; for activity in the BAEC proliferation assay: result in words
Method: BAEC were trypsinized and plated into 96-well plates at a density of 2000 cells per well. After the cells adhered to the plate, compounds dissolved in ethanol (final concentration of 0.5%) were added to the cultures.
as §2

67 kD (p67) = molecular target: T3, 67 kD (p67) (Bos taurus, UniProt Q3ZC89); test: competition of ovalicin photoaffinity labeling in BAEC extracts; type: binding, bovine; settings: BAEC extract preincubated with excess cold competitor
T3 construct: endogenous in cells; host or cells: BAEC (bovine aortic endothelial cells) extract
Method: Photoaffinity labeling was performed as follows. […] Reaction mixtures were incubated on ice in the dark for 1 hr and then irradiated at 254 nm (0.2 J/cm^2). Reactions were quenched by adding 1.5 μl β-mercaptoethanol followed by 7.5 μl 5×SDS sample buffer and heated in a boiling water bath for 3 min. Samples were analyzed by 10% SDS/PAGE, followed by autoradiography.

recombinant yeast MetAP2 = recombinant yeast MetAP2 (Saccharomyces cerevisiae, UniProt P38174); test: MetAP activity of recombinant yeast MetAP2 in vitro; type: biochemical; settings: concentrations as low as 5 nM
recombinant human MetAP2 [6] = molecular target: T2, recombinant human MetAP2; test: MetAP2 inhibition of eIF-2α phosphorylation by heme-regulated inhibitor kinase (HRI); type: biochemical; settings: compared with unbound MetAP2
Method: Modified or control MetAP2 (0.6 μg) was incubated with purified eIF-2 (0.3 μg) in 20 mM Tris·HCl, pH 7.8, 40 mM KCl, and 2 mM MgAC2 on ice for 1 hr. Recombinant HRI (0.25 ng) and [γ-^32P]ATP were then added to a final total volume of 20 μl and the reaction mixture was further incubated at 37° C. for 10 min. The labeled eIF-2α was analyzed by 10% SDS-PAGE followed by autoradiography. The phosphorylated bands were quantified by NIH Image 1.60 software.

[7] = test system: Wild-type [YPH500] yeast cells; test: yeast growth on YEPD plates containing drug, wild type; type: cell-based, Saccharomyces cerevisiae; settings: 50 nM drug, YEPD plate, 30° C., four days
Source text: as §1

p67 (MetAP2) = p67 (MetAP2) (Mus musculus, UniProt O08663)
[8] = MetAP2 IC50 (nM), MetAP2 enzymatic activity, average of at least three experiments
[9] = BAEC proliferation, average of at least three experiments, read-out: Proliferation IC50
[10] = BAEC, read-out: Proliferation IC50 (nM)
[11] = MetAP2 enzymatic activity, average of at least three experiments, read-out: MetAP2 IC50

p67 (MetAP2), sequence (O08663 whole entry): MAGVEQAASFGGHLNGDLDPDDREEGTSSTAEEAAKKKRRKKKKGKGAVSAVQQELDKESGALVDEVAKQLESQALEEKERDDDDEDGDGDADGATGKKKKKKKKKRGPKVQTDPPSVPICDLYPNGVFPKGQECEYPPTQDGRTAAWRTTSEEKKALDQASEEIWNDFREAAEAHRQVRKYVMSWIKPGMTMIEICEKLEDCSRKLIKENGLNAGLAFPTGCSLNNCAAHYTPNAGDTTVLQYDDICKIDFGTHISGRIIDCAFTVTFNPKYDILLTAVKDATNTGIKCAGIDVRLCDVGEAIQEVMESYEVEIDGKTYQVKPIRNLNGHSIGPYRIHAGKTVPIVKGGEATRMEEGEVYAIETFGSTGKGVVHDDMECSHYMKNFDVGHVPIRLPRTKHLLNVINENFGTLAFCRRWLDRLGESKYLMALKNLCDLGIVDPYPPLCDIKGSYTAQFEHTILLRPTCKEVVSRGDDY
T2 sequence (P50579 whole entry): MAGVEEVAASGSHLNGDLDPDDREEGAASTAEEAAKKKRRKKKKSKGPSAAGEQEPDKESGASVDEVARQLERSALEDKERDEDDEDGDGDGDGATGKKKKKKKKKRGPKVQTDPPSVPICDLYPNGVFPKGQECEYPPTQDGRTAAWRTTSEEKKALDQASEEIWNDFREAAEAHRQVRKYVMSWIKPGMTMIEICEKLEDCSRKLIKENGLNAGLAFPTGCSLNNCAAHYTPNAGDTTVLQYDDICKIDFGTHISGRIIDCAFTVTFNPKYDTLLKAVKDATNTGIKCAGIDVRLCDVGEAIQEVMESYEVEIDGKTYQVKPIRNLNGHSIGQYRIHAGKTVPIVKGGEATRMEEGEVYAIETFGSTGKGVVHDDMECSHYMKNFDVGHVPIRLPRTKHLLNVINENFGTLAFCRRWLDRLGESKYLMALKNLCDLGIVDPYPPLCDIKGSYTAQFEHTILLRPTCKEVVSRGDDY
recombinant yeast MetAP2, sequence (P38174 whole entry): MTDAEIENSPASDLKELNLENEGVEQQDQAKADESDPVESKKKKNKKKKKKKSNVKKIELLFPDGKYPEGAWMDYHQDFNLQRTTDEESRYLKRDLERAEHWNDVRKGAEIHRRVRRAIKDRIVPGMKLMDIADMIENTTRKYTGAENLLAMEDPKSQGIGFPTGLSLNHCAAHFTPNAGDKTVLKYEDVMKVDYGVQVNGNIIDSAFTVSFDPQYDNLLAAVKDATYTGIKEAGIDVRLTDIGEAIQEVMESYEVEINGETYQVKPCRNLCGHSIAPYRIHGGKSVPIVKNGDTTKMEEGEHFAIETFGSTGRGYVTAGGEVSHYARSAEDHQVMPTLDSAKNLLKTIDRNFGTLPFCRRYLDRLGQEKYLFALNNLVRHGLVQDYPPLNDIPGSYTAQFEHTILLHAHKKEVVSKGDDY
T3 sequence (Q3ZC89 whole entry): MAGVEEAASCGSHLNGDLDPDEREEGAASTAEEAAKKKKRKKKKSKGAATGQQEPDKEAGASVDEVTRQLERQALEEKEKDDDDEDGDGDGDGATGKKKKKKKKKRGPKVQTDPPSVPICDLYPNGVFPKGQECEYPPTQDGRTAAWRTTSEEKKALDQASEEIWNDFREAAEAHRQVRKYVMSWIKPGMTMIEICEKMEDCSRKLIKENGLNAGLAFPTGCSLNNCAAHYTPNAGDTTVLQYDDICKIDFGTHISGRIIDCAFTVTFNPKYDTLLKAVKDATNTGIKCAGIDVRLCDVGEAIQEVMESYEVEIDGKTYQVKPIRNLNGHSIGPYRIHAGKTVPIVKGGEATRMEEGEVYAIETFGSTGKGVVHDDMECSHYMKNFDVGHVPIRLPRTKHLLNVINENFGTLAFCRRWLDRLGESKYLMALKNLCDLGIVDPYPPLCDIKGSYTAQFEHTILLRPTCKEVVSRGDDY

SMILES: CO[C@@H]1[C@H](OC(=O)NC(=O)CCl)CC[C@]2(CO2)[C@H]1[C@@]1(C)O[C@@H]1CC=C(C)C [AGM-1470]
growth of the map1 mutant [1]: completely inhibited
inhibition of MetAP activity of the type 1 enzyme (recombinant yeast MetAP1): No inhibition
IC50 (recombinant human MetAP2 [2]; IC50, methionine aminopeptidase activity of MetAP2, estimated, 1 nM of recombinant human MetAP2 used in the assay): ~1 nM
IC50 (recombinant human MetAP2 [2]; [8]): 1 ± 0.3 nM
mode of binding to MetAP2 (recombinant human MetAP2 [3]): bound to MetAP2 covalently
growth of map2 mutant yeast [4]: resistant
IC50 [5, 9]: 0.037 ± 0.0024 nM
effect on p67 labeling by ovalicin photoaffinity probe (67 kD (p67)): abrogated p67 labeling
inhibition of the yeast MetAP2 enzyme (recombinant yeast MetAP2): completely inhibited
MetAP2 bound by drug: inhibiting phosphorylation of eIF-2α by HRI (recombinant human MetAP2 [6]): as effective as unbound MetAP2
growth of wild type yeast [7]: resistant
competition of band reacting with anti-human MetAP2 antibodies (p67 (MetAP2); Western blot of protein retained by biotin-fumagillin and biotin-ovalicin conjugates): elimination of the cross-reacting band
p67 retention by biotin-ovalicin conjugate on immobilized streptavidin (p67 (MetAP2); mouse embryo extract, 50 μM competitor): sensitive
competition of p67 binding by biotin-fumagillin (p67 (MetAP2); mouse embryo extract, 50 μM competitor, silver stain): competed

SMILES: CO[C@@H]1[C@H](O)CC[C@]2(CO2)[C@@]1(O)[C@@]1(C)O[C@@H]1CC=C(C)C [FOS-34, (3S,4R,5R,6R)-4-[(1′S,2′S)-1′,2′-Epoxy-1′,5′-dimethyl-4′-hexenyl]-5-methoxy-1-oxaspiror[2.5]octane-4,6-diol]
IC50 (recombinant human MetAP2 [2]; [8]): 4 ± 1 nM
IC50 [5, 10]: 2.2 ± 1.4 nM

IC50 (recombinant human MetAP2 [2]; [11]): 400 ± 200 nM
SMILES: COC1C(OC(=O)NC(=O)CCl)CCC(O)(CSC)C1(O)C1(C)OC1CC=C(C)C [FOS-67, (1R,2S,3R,4R)-1-Methylthiomethylene-2-[(1′S,2′S)-1′,2′-epoxy-1′,5′-dimethyl-4′-hexenyl]-3-methoxy-4-O-(N-chloroacetyl)carbamoyl-cyclohexane-1,2,4-triol]
IC50 [5, 9]: 40 ± 4 nM

IC50 (recombinant human MetAP2 [2]; [11]): 2 ± 0.8 nM
SMILES: CO[C@@H]1[C@H](OC(=O)NC(=O)CCl)CC[C@]2(CO2)[C@@]1(O)[C@@]1(C)O[C@@H]1CC=C(C)C [FOS-68, (3S,4R,5R,6R)-4-[(1′S,2′S)-1′,2′-Epoxy-1′,5′-dimethyl-4′-hexenyl]-5-methoxy-6-O(N-chloro-acetyl)carbamoyl-1-oxaspiror[2.5]octane-4,6-diol]
IC50 [5, 9]: 0.46 ± 0.26 nM

SMILES: CO[C@@H]1[C@H](OC(=O)CCCCl)CC[C@]2(CO2)[C@@]1(O)[C@@]1(C)O[C@@H]1CC=C(C)C [FOS-69, (3S,4R,5R,6R)-4-[(1′S,2′S)-1′,2′-Epoxy-1′5′-dimethyl-4′-hexenyl]-5-methoxy-6-O(4″chlorobutyryl)-1-oxaspiror[2.5]octane-4,6-diol]
IC50 (recombinant human MetAP2 [2]; [8]): 0.1 ± 0.03 nM
IC50 [5, 9]: 0.31 ± 0.066 nM

SMILES: CO[C@@H]1C(=O)CC[C@]2(CO2)[C@H]1[C@@]1(C)O[C@@H]1CC=C(C)C [FOS-72, (3R,4S,5S)-4-[(1′R,2′S)-1′,2′-Epoxy-1′,5′-dimethyl-4′-hexenyl]-5-methoxy-1-oxaspiror[2.5]octan-6-one]
IC50 (recombinant human MetAP2 [2]; [11]): 6 ± 2 nM
IC50 [5, 10]: 0.013 ± 0.0015 nM

IC50 (recombinant human MetAP2 [2]; [11]): 45 ± 12 nM
SMILES: COC1C(O)CCC(O)(CSC)C1(O)C1(C)OC1CC=C(C)C [FOS-201, (1R,2S,3R,4R)-1-Methylthiomethylene-2-[(1′S,2′S)-1′,2′-epoxy-1′,5′-dimethyl-4′hexenyl]-3-methoxycyclohexane-1,2,4-triol]
IC50 [5, 9]: 56 ± 34 nM

SMILES: CO[C@@H]1C(=O)CC[C@]2(CO2)[C@@]1(O)[C@@]1(C)O[C@@H]1CC=C(C)C [Ovalicin]
growth of the map1 mutant [1]: completely inhibited
inhibition of MetAP activity of the type 1 enzyme (recombinant yeast MetAP1): No inhibition
inhibition of the yeast MetAP2 enzyme (recombinant yeast MetAP2): completely inhibited
growth of wild type yeast [7]: resistant

SMILES: COC1C(OC(=O)NCCCCCCCCNC(=O)CCCCC2SCC3NC(=O)NC32)CCC2(CO2)C1C1(C)OC1CC=C(C)C (centres unmarked) [biotin-fumagillin]
activity in the BAEC proliferation assay [5]: retain significant activity

SMILES: CO[C@@H]1[C@H](OC(=O)NCCNC(=O)CCc2ccc(O)cc2)CC[C@]2(CO2)[C@@]1(O)C1(C)O[C@@H]1CC=C(C)C (some centres unmarked) [photoaffinity label mimic]
activity in the BAEC proliferation assay [5]: retained significant, albeit decreased, activity
